According to patent US7879795B2, “Enhancement of tigecycline potency using efflux pump inhibitors” (Mpex Pharmaceuticals, Inc., priority 2004, dated 2011):

How the values were obtained:
[1] = Stability in human kidney tissue preparations; format: in vitro ADME; conditions: in words
Description: The pattern of in vitro stability of compound 3 (stable in serum but unstable in tissues) observed in rodents was also reproduced using human kidney tissues or serum. FIG. 7 compares the in vitro stability of compounds 1 and 3 in human kidney tissue preparations.
FIG. 8 depicts formation of the metabolite, compound 67, in human kidney tissue. Concomitant with the disappearance of compound 3, generation of the expected metabolite of the presumed intralysosomal degradation, compound 67, was detected using human kidney.

[2] = Acute toxicity, minimal lethal dose after IV bolus in mice; format: in vivo, mouse; conditions: IV bolus into tail vein, lethal for at least one of three mice
Experimental: Acute toxicity was measured as minimal lethal dose (MLD). MLD is defined as a minimal concentration of a compound that has lethal effect for at least one mouse from the group of three mice after IV bolus injection into the mouse tail vein.

[3] = system: PAM 2466, mexR1, MexAB-OprM and MexXY-OprM over-expressed; assay: microbe, parasite or virus in culture; format: cell-based, P. aeruginosa; set-up: Tigecycline MIC in the presence of Compound 21: unit not given here; conditions: PAM 2466
Experimental: (§1) The ability of compound 21 to increase susceptibility to tigecycline was also assessed. The tigecycline potentiating activity of compound 21 was assessed by the checkerboard assay (Antimicrobial Combinations, Antibiotics in Laboratory Medicine, ed. Victor Lorian, M.D., Fourth edition, 1996, pp 333-338, which is incorporated herein by reference in its entirety) using a broth micro-dilution method performed as recommended by the CSLI (Clinical and Laboratory Standards Institute, formerly NCCLS) guidelines (National Committee for Clinical Laboratory Standards 2003. Methods for Dilution Antimicrobial Susceptibility Tests for Bacteria That Grow Aerobically—Sixth Edition; Approved Standard. NCCLS Document M7-A6, Vol 20 No. 2). In this assay, multiple dilutions of the two drugs, compound 21 and tigecycline, were tested alone and in combination, at concentrations equal to, above and below their respective minimal inhibitory concentrations (MICs). […] The stock solution was further diluted in Mueller Hinton Broth (MHB). Stock solutions were stored at −80° C.
(§2) The checkerboard assay was performed in microtiter plates. Tigecycline was diluted in the x axis, each column containing a single concentration of tigecycline. Compound 21 was diluted in the y axis, each row containing an equal concentration of the EPI. […] The assay was performed in MHB with a final bacterial inoculum of 5×10^5 CFU/ml (from an early-log phase culture). The microtiter plates were incubated for 20 hours at 35° C. and then read using a microtiter plate reader (Molecular Devices) at 650 nm, as well as by visual observation using a microtiter plate-reading mirror.

[4] = system: PAM 1323, mexZ, MexXY-OprM over-expressed, MexAB-OprM low level; assay: microbe, parasite or virus in culture; format: cell-based, P. aeruginosa; set-up: Tigecycline MIC in the presence of Compound 21: unit not given here; conditions: PAM 1323
Experimental: as §1, §2

[5] = system: PAM 1723, MexAB-OprM over-expressed, ΔMexCD-OprJ ΔMexEF-OprN; assay: microbe, parasite or virus in culture; format: cell-based, P. aeruginosa; set-up: Tigecycline MIC in the presence of Compound 21: unit not given here; conditions: PAM 1723
Experimental: as §1, §2

[6] = system: Strain S41, a clinical isolate; assay: microbe, parasite or virus in culture; format: cell-based, P. aeruginosa; conditions: strain S41
PAM 1020, wt = assay: Tigecycline potentiation checkerboard assay, PAM 1020; format: cell-based, P. aeruginosa; set-up: Tigecycline MIC in the presence of Compound 21: unit not given here; conditions: PAM 1020
Experimental: as §1, §2

[7] = system: Enterobacteriaceae, Acinetobacter, Burkholderia, Stenotrphomonas, Staphylococcus; conditions: Example 86, written in present tense
Enterobacter cloacae 25 = assay: Antibiotic MIC with fixed concentration of compound 21, Enterobacter cloacae 25; format: cell-based
[8] = system: 110 clinical isolates of P. aeruginosa; assay: Tigecycline susceptibility of P. aeruginosa clinical isolates with fixed concentration of compound 21; format: cell-based
Experimental: (§3) To further characterize the clinical potential of tigecycline/EPI combinations, the microbiological activity of tigecycline in combination with compound 21 was investigated using clinical isolates of P. aeruginosa and other gram-negative bacteria. In several experiments, described below, the impact of a fixed concentration of compound 21 (2.5 μg/ml) on susceptibility to tigecycline was determined.
Results from an experiment using 110 clinical isolates of P. aeruginosa are presented in FIG. 1, as the distribution of tigecycline MICs with or without the EPI potentiator.

[9] = system: Enterobacter aerogenes 19; assay: Antibiotic MIC with fixed concentration of compound 21, Enterobacter aerogenes 19; format: cell-based
[10] = system: strains of Klebsiella, Enterobacter and Citrobacter; assay: Potentiation of tigecycline against enterobacteria with decreased susceptibility to tigecycline; format: cell-based; conditions: in words
Experimental: as §3
The impact of compound 21 on the activity of tigecycline against representative members of Enterobacteriacaea was also tested.

[11] = azithromycin MIC with compound 21
[12] = levofloxacin MIC with compound 21 at […]
[13] = tigecycline MIC with compound 21 at […]
[14] = tigecycline with compound 21 at fixed […], 110 clinical isolates

NCCC[C@H](N)C(=O)N[C@H](CCc1ccccc1)C(=O)Nc1cnc2ccccc2c1 [Compound 3, 2-(S),5-Diamino-pentanoic acid [3-phenyl-1-(R)-(quinolin-3-ylcarbamoyl)-propyl]-amide]
degradation in homogenates prepared from frozen cadaverous human kidney [1]: Time-dependent degradation
pH dependence of degradation in human kidney homogenates [1]: stronger at lower pH
MLD (minimal lethal dose) [2]: 25 mg/kg

NCCC[C@H](N)C(=O)N[C@H](Cc1ccc(C(F)(F)F)cc1)C(=O)Nc1cnc2ccccc2c1 [Compound 21, 2-(S),5-Diamino-pentanoic acid [1-(R)-(quinolin-3-ylcarbamoyl)-2-(4-trifluoromethyl-phenyl)-ethyl]amide]
Tigecycline MIC in the presence of Compound 21 ([3]; Compound 21 0.625 μg/ml): 4
Tigecycline MIC in the presence of Compound 21 ([3]; Compound 21 1.25 μg/ml): 2
Tigecycline MIC in the presence of Compound 21 ([3]; Compound 21 5 μg/ml): 0.5
Tigecycline MIC in the presence of Compound 21 ([3]; Compound 21 10 μg/ml): 0.5
Tigecycline MIC in the presence of Compound 21 ([3]; Compound 21 20 μg/ml): 0.5
Tigecycline MIC in the presence of Compound 21 ([3]; Compound 21 40 μg/ml): 0.5
Tigecycline MIC in the presence of Compound 21 ([3]; Compound 21 […]): 0.5
Tigecycline MIC in the presence of Compound 21 ([4]; Compound 21 0.625 μg/ml): 2
Tigecycline MIC in the presence of Compound 21 ([4]; Compound 21 1.25 μg/ml): 1
Tigecycline MIC in the presence of Compound 21 ([4]; Compound 21 5 μg/ml): 0.5
Tigecycline MIC in the presence of Compound 21 ([4]; Compound 21 10 μg/ml): 0.5
Tigecycline MIC in the presence of Compound 21 ([4]; Compound 21 20 μg/ml): 0.5
Tigecycline MIC in the presence of Compound 21 ([4]; Compound 21 40 μg/ml): 0.5
Tigecycline MIC in the presence of Compound 21 ([4]; Compound 21 […]): 0.5
Tigecycline MIC in the presence of Compound 21 ([5]; Compound 21 0.625 μg/ml): 4
Tigecycline MIC in the presence of Compound 21 ([5]; Compound 21 1.25 μg/ml): 2
Tigecycline MIC in the presence of Compound 21 ([5]; Compound 21 5 μg/ml): 0.5
Tigecycline MIC in the presence of Compound 21 ([5]; Compound 21 10 μg/ml): 0.5
Tigecycline MIC in the presence of Compound 21 ([5]; Compound 21 20 μg/ml): 0.5
Tigecycline MIC in the presence of Compound 21 ([5]; Compound 21 40 μg/ml): 0.5
Tigecycline MIC in the presence of Compound 21 ([5]; Compound 21 […]): 0.5
Tigecycline MIC with Compound 21 at 5 μg/ml [6]: 0.125 µg/mL
Mutation Frequency on Tigecycline at 4 μg/ml with Compound 21 at 10 μg/ml ([6]; 4× MIC): <1.5 × 10^−10
reduction of the frequency of emergence of tigecycline resistance ([6]; compound 21 at 10 μg/ml): at least three orders of magnitude
Tigecycline MIC in the presence of Compound 21 (PAM 1020, wt; Compound 21 0.625 μg/ml): 2
Tigecycline MIC in the presence of Compound 21 (PAM 1020, wt; Compound 21 1.25 μg/ml): 1
Tigecycline MIC in the presence of Compound 21 (PAM 1020, wt; Compound 21 5 μg/ml): 0.25
Tigecycline MIC in the presence of Compound 21 (PAM 1020, wt; Compound 21 10 μg/ml): 0.25
Tigecycline MIC in the presence of Compound 21 (PAM 1020, wt; Compound 21 20 μg/ml): 0.25
Tigecycline MIC in the presence of Compound 21 (PAM 1020, wt; Compound 21 40 μg/ml): 0.25
Tigecycline MIC in the presence of Compound 21 (PAM 1020, wt; Compound 21 […]): 0.5
effect on tigecycline resistance and emergence of resistance [7]: reduces tigecycline resistance and emergence of resistance
Azi + EPI (MIC) (Enterobacter cloacae 25; [11]): ≦0.125
Levo + EPI at […] (MIC) (Enterobacter cloacae 25; [12]): 0.5
Tig + EPI at […] (MIC) (Enterobacter cloacae 25; [13]): 0.5
reduction of tigecycline MIC50 and MIC90 of the population ([8]; compound 21 at […]): 8 fold
strains that responded to compound 21 ([8]; individual strains tested): 98%
MIC50, Tigecycline + EPI [8, 14]: 0.25 µg/mL
MIC90, Tigecycline + EPI [8, 14]: 1 µg/mL
Azi + EPI (MIC) [9, 11]: 0.5
Levo + EPI at […] (MIC) [9, 12]: 16
Tig + EPI at […] (MIC) [9, 13]: 0.25
potentiation of tigecycline against strains with decreased susceptibility [10]: potentiated tigecycline
